Measurements: patent US20250213550A1, “COMPOUNDS AND METHODS FOR TREATING INFLAMMATORY BOWEL DISEASE” (Gilead Sciences, Inc., priority 2023, published 2025)
Where two headings read alike, the source gives them in different places.

Experiments:
Assay type in all cases: in vivo, human
[1] = Drug-drug interaction: Compound 1 on PK of combined oral contraceptive DRSP/EE; conditions: co-administration of Compound 1 (600 mg) with DRSP/EE, relative to DRSP/EE alone
Experimental: (§1) A Phase 1, open-label, single-center, multiple-cohort study was conducted to evaluate the effect of a mixed OATP/P-gp inhibitor (cyclosporine A; CsA) or food on the PK of Compound 1, the effect of Compound 1 on the PK of midazolam (MDZ), the effect of Compound 1 on the PK of OATP/CYP3A/BCRP substrates using atorvastatin (ATV), pravastatin (PRA), and rosuvastatin (ROS), and the effect of Compound 1 on the PK of a representative combined oral contraceptive (drospirenone/ethinyl estradiol; DRSP/EE), in healthy participants. 70 participants ages 18 to 55 years (inclusive) and having BMI of ≥18.0 kg/m^2 and ≤30.0 kg/m^2 were enrolled. For Cohorts 1-3, there were an approximately even distribution of healthy participants assigned male at birth and nonpregnant, nonlactating participants assigned female at birth. Cohort 4 included only healthy, nonpregnant, nonlactating participants assigned female at birth.
Participants in Cohort 4 received treatment sequence OPQR.
Treatment O: Single dose of DRSP 3 mg and EE 0.02 mg, administered under fasting condition on Day 1 of Period 1 […]
(§2) Concentrations of Compound 1 and its active metabolites Compound A and Compound B, MDZ and its metabolite 1-OH-MDZ, ATV and its metabolite 2-OH-ATV, PRA, ROS, DRSP, and EE in plasma PK samples were determined by validated high performance liquid chromatography tandem mass spectrometry (LC-MS/MS) bioanalytical methods.

[2] = Food effect on Compound A plasma PK after single dose Compound 1 600 mg; conditions: for Tmax: 600 mg, read-out: median Tmax
Experimental: as §1
Participants in Cohort 1 were randomized to 1 of 2 treatment sequences (ABC or BAC), in a 1:1 ratio.
Treatment A: Single dose of Compound 1 600 mg, administered in the AM, under fasted conditions
Treatment B: Single dose of Compound 1 600 mg, administered in the AM, within 5 minutes of completing a high-fat/high-calorie meal
• Periods 1, 2, and 3: Day 1, 0 (pre-dose, ≤5 min before dose), 0.25, 0.5, 1, 1.5, 2, 3, 4, 6, 8, 12, 18, 24, 36, 48, 72, and 96 hours post-dose; and at the early termination (ET) visit, as applicable
as §2
Pharmacokinetic parameters were determined for Compound 1 and its metabolites for all cohorts, MDZ and 1-OH-MDZ for Cohort 2; ATV, 2-OH-ATV, PRA, and ROS for Cohort 3; and DRSP and EE for Cohort 4.

OATP/P-gp = assay: Drug-drug interaction: mixed OATP/P-gp inhibitor CsA on PK of Compound A; conditions: co-administration of Compound 1 600 mg with CsA 600 mg, fasted
Experimental: as §1
Treatment C: Single dose of Compound 1 600 mg, administered in the AM, under fasted conditions with a single dose of CsA 600 mg […]
as §2

[3] = Compound 1 600 mg single dose, vs fasting

| change in Cmax by high-fat/high-calorie meal [2, 3] | increase of AUCinf by high-fat/high-calorie meal [2, 3] [%] | Tmax ([2]; both sexes, human, plasma, oral, Compound 1 600 mg single dose, fasting) [h] | Tmax ([2]; both sexes, human, plasma, oral, Compound 1 600 mg single dose, with a high-fat/high-calorie meal) [h] | AUC(0-inf) ([2]; both sexes, human, plasma, oral, Cpd 1 600 mg single dose, fasting, Treatment A, mean) [µg·h/mL] | AUCinf % GLSM Ratio ([2]; non-fasting (test) vs fasting (reference), Cpd 1 600 mg) [%] | increase of Compound A AUCinf (OATP/P-gp) [%] | increase of Compound A Cmax (OATP/P-gp) [%] | Structure (SMILES) | change in AUCinf of DRSP [1] | change in Cmax of EE [1] |
| --- | --- | --- | --- | --- | --- | --- | --- | --- | --- | --- |
|  |  |  |  |  |  |  |  | Cn1ccc2c([C@@H](c3cn(C45CC(C4)C5)nn3)N(C(=O)OCOP(=O)(O)O)c3cc(Cl)c4ncc(C#N)c(NCC(C)(C)C)c4c3)cccc2c1=O [Compound 1] | no change | no change |
| no change | 92 | 4 | 5 | 46.3 | 192 | 122 | 27 | Cn1ccc2c([C@H](Nc3cc(Cl)c4ncc(C#N)c(NCC(C)(C)C)c4c3)c3cn(C45CC(C4)C5)nn3)cccc2c1=O [Compound A] |  |  |
